In the assay the target is RAC-alpha serine/threonine-protein kinase (Homo sapiens, UniProt P31749). Briefly: Kinase Activity Assay. As to the method: Akt1 was prepared and assays of inhibitory activity of the compound according to the present invention against Akt1 kinase activity in vitro were conducted according to the method described in Biochem. J., vol. 385, pp. 399-408, 2005 and Cancer Res., vol. 68, pp. 2366-2374, 2008. In the preparation of Akt1 protein, human Akt1 tagged with the middle T antigen was expressed in an insect cell Sf9, Akt1 was prepared through affinity purification and activation by PDK1, and the resultant was stored at −80° C. until the inhibition assays of the compounds. In the inhibition assay of the compounds, Akt1 and the compound according to the present invention were subjected to pre-incubation at 25° C. for 120 minutes in a reaction buffer (15 mM Tris-HCl, pH 7.5, 0.01% Tween-20, 2 mM DTT). Subsequently, biotinylated Crosstide (biotin-[…], Millipore), MgCl2, and ATP were added as substrates at the final concentration of 500 nM, 10 mM, and 150 μM, respectively, and the reaction was allowed to proceed at 25° C. for 60 minutes. […] In the end, the fluorescence levels irradiated with an excitation light of 337 nm were assayed at two different wavelength levels (i.e., 620 nm and 665 nm) using PI-HERAstar FS (BMG LABTECH) or PHERAstar (BMG LABTECH).

SMILES strings stand for the structures.

Sequence of RAC-alpha serine/threonine-protein kinase (P31749 whole entry): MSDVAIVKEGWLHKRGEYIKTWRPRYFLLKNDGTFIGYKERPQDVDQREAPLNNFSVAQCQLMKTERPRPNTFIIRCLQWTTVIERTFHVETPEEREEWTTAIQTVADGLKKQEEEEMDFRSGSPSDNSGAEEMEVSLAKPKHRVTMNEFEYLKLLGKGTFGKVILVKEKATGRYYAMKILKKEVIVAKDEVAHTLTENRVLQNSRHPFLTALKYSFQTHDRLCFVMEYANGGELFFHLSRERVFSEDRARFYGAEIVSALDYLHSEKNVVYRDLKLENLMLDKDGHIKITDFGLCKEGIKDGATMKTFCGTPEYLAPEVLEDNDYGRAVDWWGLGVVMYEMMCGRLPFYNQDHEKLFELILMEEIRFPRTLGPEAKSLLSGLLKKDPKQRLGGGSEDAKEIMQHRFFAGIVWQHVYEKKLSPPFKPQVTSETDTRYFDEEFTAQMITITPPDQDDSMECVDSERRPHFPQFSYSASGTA

Compound `CN(C)CCn1cc(-c2ccc(F)c(C(F)(F)F)c2)nc1C1CCN(c2ncnc3c2C(C)(C)C(=O)N3)CC1` [US10538528, Compound A] displayed an IC50 of 52.2 nM.

The record behind these values is BindingDB's records for patent US10538528 (Taiho Pahrmaceutical Co., Ltd., 2020).
